Laboratory results published in the supplement of paper PMC10307832.

Columns and labels:
Assay in all cases: relative viability (nuclei count vs DMSO), 5 days (fraction); higher = more cells survive
[1] = compound: CC(=O)c1c(C)c2cnc(Nc3ccc(N4CCNCC4)cn3)nc2n(C2CCCC2)c1=O [Palbociclib] + CC1(C)CCC(c2ccc(Cl)cc2)=C(CN2CCN(c3ccc(C(=O)NS(=O)(=O)c4ccc(N[C@H](CCN5CCOCC5)CSc5ccccc5)c(S(=O)(=O)C(F)(F)F)c4)cc3)CC2)C1 [Navitoclax] (partner 0.5 µM)
Outline: (§1)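 A single step with final 0.05% Triton X-100, 1% formaldehyde and 1 ug/ml Hoechst fixed the cells and stained nuclei 5 days after treatment. Lung cancer cell lines in 1536-well plates had been treated by pin tool the day after seeding with one drug alone or a fixed anchor-drug dose plus five library-drug doses (not always all listed) in √10 steps, and nuclei were counted on 4× images. Relative viability is the ratio of nuclei in treated wells to nuclei in vehicle wells, taken as the median of duplicate plates.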

[2] = compound: CC(=O)c1c(C)c2cnc(Nc3ccc(N4CCNCC4)cn3)nc2n(C2CCCC2)c1=O [Palbociclib] + Cc1nc(NC(=O)N2CCC[C@H]2C(N)=O)sc1-c1ccnc(C(C)(C)C(F)(F)F)c1 [Alpelisib] (partner 2 µM)
Outline: as §1

[3] = compound: CC(=O)c1c(C)c2cnc(Nc3ccc(N4CCNCC4)cn3)nc2n(C2CCCC2)c1=O [Palbociclib] + O=C(CCCCCCC(=O)Nc1ccccc1)NO [Vorinostat] (partner 1 µM)
Outline: as §1

[4] = compound: CC(=O)c1c(C)c2cnc(Nc3ccc(N4CCNCC4)cn3)nc2n(C2CCCC2)c1=O [Palbociclib] + O=C(c1cc(Cc2n[nH]c(=O)c3ccccc23)ccc1F)N1CCN(C(=O)C2CC2)CC1 [Olaparib] (partner 8 µM)
Outline: as §1

Row | Cell Line | relative viability ([1]; first compound 0.01 µM) | relative viability ([1]; first compound 0.03162 µM) | relative viability ([1]; first compound 0.1 µM) | relative viability ([1]; first compound 0.3162 µM) | relative viability ([1]; first compound 1 µM) | relative viability ([2]; first compound 0.01 µM) | relative viability ([2]; first compound 0.03162 µM) | relative viability ([2]; first compound 0.1 µM) | relative viability ([2]; first compound 0.3162 µM) | relative viability ([2]; first compound 1 µM) | relative viability ([3]; first compound 0.01 µM) | relative viability ([3]; first compound 0.03162 µM) | relative viability ([3]; first compound 0.1 µM) | relative viability ([3]; first compound 0.3162 µM) | relative viability ([3]; first compound 1 µM) | relative viability ([4]; first compound 0.01 µM) | relative viability ([4]; first compound 0.03162 µM) | relative viability ([4]; first compound 0.1 µM) | relative viability ([4]; first compound 0.3162 µM) | relative viability ([4]; first compound 1 µM)
1 | NCI-H2347 | 0.835 | 0.751 | 0.646 | 0.6 | 0.533 | 1.15 | 0.979 | 0.642 | 0.789 | 0.597 | 0.558 | 0.603 | 0.424 | 0.487 | 0.4 | 0.606 | 0.549 | 0.564 | 0.51 | 0.49
2 | UMC-11 | 0.326 | 0.326 | 0.23 | 0.257 | 0.223 | 0.996 | 0.931 | 0.604 | 0.459 | 0.254 | 0.308 | 0.42 | 0.369 | 0.312 | 0.242 | 0.332 | 0.375 | 0.341 | 0.298 | 0.136
3 | NCI-H661 |  |  |  |  |  | 0.92 | 0.686 | 0.583 | 0.382 | 0.508 | 0.748 | 0.598 | 0.561 | 0.433 | 0.425 | 0.731 | 0.636 | 0.583 | 0.467 | 0.44
4 | NCI-H3122 | 0.941 | 0.982 | 0.921 | 0.757 | 0.618 | 0.76 | 0.667 | 0.688 | 0.46 | 0.353 | 0.931 | 0.632 | 0.879 | 0.703 | 0.613 | 0.596 | 0.576 | 0.635 | 0.584 | 0.528
5 | HCC-78 | 0.812 | 0.473 | 0.382 | 0.447 | 0.201 | 0.305 | 0.242 | 0.217 | 0.263 | 0.216 | 0.502 | 0.38 | 0.415 | 0.418 | 0.299 | 1.05 | 0.661 | 0.695 | 0.636 | 0.369
6 | PC-3 [JPC-3] | 0.769 | 0.778 | 0.66 | 0.721 | 0.635 | 1.06 | 1.02 | 0.851 | 0.88 | 0.618 | 0.817 | 0.673 | 0.699 | 0.507 | 0.381 | 1.16 | 0.903 | 0.816 | 0.872 | 0.526
7 | HCC-15 | 0.672 |  | 0.622 | 0.641 | 0.529 | 0.878 |  | 0.793 | 0.719 | 0.704 | 0.871 |  | 0.768 | 0.684 | 0.581 | 0.788 |  | 0.626 | 0.651 | 0.598
8 | NCI-H1755 | 1.03 | 0.974 | 0.876 | 0.818 | 0.715 | 0.949 | 0.855 | 0.802 | 0.766 | 0.575 | 0.721 | 0.62 | 0.489 | 0.606 | 0.491 | 0.875 | 0.841 | 0.812 | 0.788 | 0.664
9 | COR-L23 | 0.977 | 0.759 | 0.681 | 0.544 | 0.477 | 0.671 | 0.535 | 0.516 | 0.37 | 0.311 | 0.461 | 0.346 | 0.328 | 0.244 | 0.223 | 0.312 | 0.271 | 0.233 | 0.194 | 0.175
10 | NCI-H838 | 1.16 | 1.03 | 0.859 | 0.938 | 0.423 | 1.03 | 0.918 | 0.829 | 0.883 | 0.441 | 0.71 | 0.623 | 0.543 | 0.478 | 0.314 | 0.812 | 0.64 | 0.605 | 0.46 | 0.263
11 | NCI-H1299 | 1.09 | 0.949 | 0.909 | 0.846 | 0.715 | 1 | 1.02 | 0.949 | 0.956 | 0.865 |  |  |  |  |  | 0.925 | 0.924 | 0.886 | 0.79 | 0.65
12 | NCI-H358 |  |  |  |  |  | 0.777 | 0.709 | 0.395 | 0.312 | 0.257 | 0.73 | 0.475 | 0.413 | 0.449 | 0.199 | 0.571 | 0.486 | 0.452 | 0.292 | 0.136
13 | Calu-6 | 0.863 | 0.792 | 0.683 | 0.549 | 0.479 | 0.817 | 0.864 | 0.751 | 0.695 | 0.465 |  |  |  |  |  | 0.612 | 0.549 | 0.511 | 0.528 | 0.417
14 | NCI-H650 |  |  |  |  |  | 1.24 |  | 0.79 | 0.775 | 0.624 | 0.537 |  | 0.366 | 0.359 | 0.314 | 0.44 |  | 0.318 | 0.354 | 0.246
15 | EBC-1 | 0.363 | 0.367 | 0.283 | 0.215 | 0.195 | 0.786 | 0.774 | 0.573 | 0.409 | 0.184 |  |  |  |  |  | 0.696 | 0.647 | 0.452 | 0.514 | 0.241
16 | ChaGo-K-1 | 1.22 | 0.463 | 1.08 | 1.09 | 1.18 |  |  |  |  |  | 0.726 |  | 0.696 | 0.721 | 0.746 | 0.423 |  | 0.437 | 0.467 | 0.444
17 | NCI-H1703 | 1.18 | 0.756 | 0.753 | 0.394 | 0.28 | 0.298 | 0.346 | 0.301 | 0.231 | 0.182 |  |  |  |  |  | 0.417 | 0.339 | 0.293 | 0.199 | 0.203
18 | NCI-H1792 | 0.583 | 0.537 | 0.592 | 0.461 | 0.321 | 0.679 | 0.603 | 0.543 | 0.637 | 0.408 |  |  |  |  |  | 0.476 | 0.266 | 0.384 | 0.348 | 0.222
19 | ABC-1 |  |  |  |  |  | 1.28 | 0.91 | 0.785 | 0.751 | 0.412 | 1.18 | 1.03 | 0.552 | 1.03 | 0.453 | 0.89 | 0.757 | 0.602 | 1.04 | 0.898
